Experimental data from patent US20150376647A1, “DESIGNER PH SENSOR AS UNIVERSAL TRANSGENE CONTROLLER” (ETH ZURICH, priority 2013, published 2015).

Test system: protein kinase A (PKA)
Assay: PKA inhibition of pH sensor signaling in pDA62/pCK53-cotransfected HEK-293T
Assay type: cell-based, human
Conditions: 10 μM for 1 h, 2 h at pH 6.9, then pH 7.6, SEAP after 24 h
Experimental: PKA inhibition: 1.5×10^5 cells were pretreated with 10 μM H-89 (Sigma, cat. no. B1472) for 1 h, incubated for 2 h in cell culture medium adjusted to pH 6.9 and maintained for 24 h in cell culture medium adjusted to pH 7.6 before SEAP levels were assessed in the cell culture supernatant
SEAP: Production of human placental secreted alkaline phosphatase was quantified in cell culture supernatants (Schlatter S. et al., Gene 282, 19-31 (2002)) and mouse serum (Weber et. al., Nat. Biotech., 22, 1440-1444 (2004)) as described before.

O=S(=O)(NCCNC/C=C/c1ccc(Br)cc1)c1cccc2cnccc12 [H-89]
TDAG8-to-PCRE signaling (SEAP levels): interrupted
